Consider 18 compounds from patent US20250250264A1, “KIF18A INHIBITOR AND USE THEREOF” (Wuhan Humanwell Innovative Drug Research and Development …, priority 2022, published 2025).

Assay [1] addresses recombinant protein KIF18A (kinesin domain: aa 1-467) (Homo sapiens (Human), UniProt Q8NI77). In words: Assay on inhibition of KIF18A enzymatic activity (ADP-Glo). It is filed as biochemical. The conditions noted are these: KIF18A 80 nM, ATP 80 μM, 3 h at room temperature, ADP-Glo luminescence; read-out: IC50 (μM), inhibitory effects of compounds on KIF18A enzymatic activity. The text has this: The recombinant protein KIF18A (kinesin domain: aa 1-467) used in this assay was expressed by the Bac-to-Bac baculovirus expression system from Invitrogen, and the resulting protein was purified for use in this assay (Seki, M. et al. 2003 Nucleic Acids Res.). Quantitative detection of KIF18A enzymatic activity was completed using an ADP-Glo™ kinase assay kit (Promega Inc). Related procedures strictly followed the product instructions, which are briefly described as follows:
The reaction system consisted of a test compound, the recombinant protein KIF18A (aa 1-467), ATP (Promega Inc), and an assay buffer. The test compound was prepared into a 0.5 mM stock solution using DMSO (Sigma Inc) and then serially diluted in DMSO. The assay buffer consisted of an aqueous solution of 15 mM Tris, 10 mM MgCl2 (Sigma Inc), 0.01% Pluronic F-68 (Life Technologies Inc), 1 μM paclitaxel (Cytoskeleton Inc), 30 μg/mL porcine tubulin (Cytoskeleton Inc), and 2% DMSO. The KIF18A protein (final concentration: 80 nM) and the compound at different concentrations (1 μL) were added to the prepared assay buffer (50 μL), and the mixture was incubated at room temperature for 15 min. Then, ATP (final concentration: 80 μM) was added to the reaction mixture, and the resulting mixture was incubated at room temperature for 3 h. After the reaction was completed, 5 μL of the ADP-Glo™ reagent and 2.5 μL of the reaction mixture were added to a 384-well plate (Grenier Inc). The resulting mixture was mixed homogeneously, then sealed by an aluminum foil sealing film, and incubated at room temperature in the dark for 40 min. Finally, 10 μL of the […] was added to each reaction well, and the mixture was incubated at room temperature in the dark for 40 min. After all reactions were completed, the luminescence values of the wells were read on a microplate reader (Molecular Device_SpectraMax Id5), and the inhibition ratios were calculated. The calculation formula for the inhibition rates was as follows: inhibition rate=(1−(compound group−blank group)/(negative control group−blank group))×100%. Then, based on the inhibition rates at different compound concentrations, the IC50 value of the test compound was calculated using the GraphPad Prism 8 software.
On the technique in general: ADP-Glo turns the ADP formed in a reaction into a luminescent signal.

A further assay has as its system NIH:OVCAR-3 cells. Briefly: Assay on inhibition of OVCAR3 tumor cell proliferation (CellTiter-Glo). It is filed as cell-based. The following applies: 3 days of drug treatment, read-out: IC50 (μM), inhibitory effects of compounds on tumor cell proliferation. The protocol:
NIH:OVCAR-3 cells (ATCC, Cat No. HTB-161, purchased from Co-Bier) were seeded into a T75 culture flask and cultured in an RPMI 1640 medium containing 20% FBS for 3 days in preparation for subsequent culturing and seeding into a 96-well plate for the cell proliferation assay.
The OVCAR3 cells were seeded at a density of 3000 cells/100 μL/well into the 96-well cell plate, and then the plate was incubated in an incubator (37° C., 5% CO2) for 18 h. On the second day, drug treatment was started. Serially diluted test compound solutions (each drug starting at a concentration of 10 μM, diluted in DMSO, with a dilution ratio of 1:3, and nine gradient points for each drug) or DMSO (negative control) was added to the medium in the plate at 100 μL/well, and a blank group was set up with only medium, but no seeded cell strains. After the drug addition, the plate was incubated in the incubator for another 3 days (37° C., 5% CO2). On the fourth day, plate detection was performed. To each well, 100 μL of CellTiter-Glo reagent (Promega G9243) was added. The plate was shaken for 5 min and then left to stand at room temperature for 5 min. The chemical luminescence signal value of each well was determined using a microplate reader (PerkinElmer EnVision®2104). Cell proliferation inhibition rate=(1−(compound group−blank group)/(DMSO group−blank group))×100%. Then, the IC50 value of each compound was calculated using the GraphPad Prism 8 software.

Read-outs that look alike come from different tables or passages of the source.

Sequence of recombinant protein KIF18A (kinesin domain: aa 1-467) (Q8NI77 1-467): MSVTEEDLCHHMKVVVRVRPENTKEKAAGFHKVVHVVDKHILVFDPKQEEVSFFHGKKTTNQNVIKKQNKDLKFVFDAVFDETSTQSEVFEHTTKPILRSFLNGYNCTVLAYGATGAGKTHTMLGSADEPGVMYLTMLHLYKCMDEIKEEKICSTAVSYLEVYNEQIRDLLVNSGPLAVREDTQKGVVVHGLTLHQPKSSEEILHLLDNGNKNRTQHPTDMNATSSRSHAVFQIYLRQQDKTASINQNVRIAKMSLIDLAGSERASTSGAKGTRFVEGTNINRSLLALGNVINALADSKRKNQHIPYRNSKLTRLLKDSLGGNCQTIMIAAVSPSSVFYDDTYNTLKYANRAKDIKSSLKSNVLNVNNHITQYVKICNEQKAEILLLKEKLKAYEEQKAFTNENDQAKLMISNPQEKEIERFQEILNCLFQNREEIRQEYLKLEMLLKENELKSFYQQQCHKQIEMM
Sequence of recombinant protein KIF18A (kinesin domain: aa 1-467) (P02550 whole entry partner, the tested form may be a part): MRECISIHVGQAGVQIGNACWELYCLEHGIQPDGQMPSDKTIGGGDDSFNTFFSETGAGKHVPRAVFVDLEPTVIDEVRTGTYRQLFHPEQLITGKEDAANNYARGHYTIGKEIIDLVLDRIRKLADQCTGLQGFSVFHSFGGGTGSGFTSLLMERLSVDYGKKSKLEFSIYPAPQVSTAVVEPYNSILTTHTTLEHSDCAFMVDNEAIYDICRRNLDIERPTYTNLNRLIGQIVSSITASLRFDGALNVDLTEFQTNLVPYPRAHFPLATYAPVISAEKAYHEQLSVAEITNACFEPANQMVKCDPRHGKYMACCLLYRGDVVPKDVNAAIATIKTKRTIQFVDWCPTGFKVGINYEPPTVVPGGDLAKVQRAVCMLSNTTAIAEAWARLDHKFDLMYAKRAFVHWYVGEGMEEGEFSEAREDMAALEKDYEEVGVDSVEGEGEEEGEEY
Sequence of recombinant protein KIF18A (kinesin domain: aa 1-467) (P02554 whole entry partner, the tested form may be a part): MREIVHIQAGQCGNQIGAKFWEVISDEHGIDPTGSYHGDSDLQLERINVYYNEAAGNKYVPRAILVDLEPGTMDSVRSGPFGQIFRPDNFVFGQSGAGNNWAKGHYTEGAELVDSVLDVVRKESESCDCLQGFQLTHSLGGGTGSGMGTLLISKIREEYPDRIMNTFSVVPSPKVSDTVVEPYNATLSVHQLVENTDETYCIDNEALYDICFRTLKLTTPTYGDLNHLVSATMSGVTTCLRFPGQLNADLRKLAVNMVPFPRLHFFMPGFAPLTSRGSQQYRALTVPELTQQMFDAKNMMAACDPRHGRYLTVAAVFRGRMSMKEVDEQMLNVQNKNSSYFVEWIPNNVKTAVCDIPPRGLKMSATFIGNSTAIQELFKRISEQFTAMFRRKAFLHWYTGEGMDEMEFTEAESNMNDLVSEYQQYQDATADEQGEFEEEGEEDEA

With `Cc1cc(-c2cnn(-c3ccc(NS(=O)(=O)CCO)cc3N3CCC4(CC3)CC4)c2)nc(OCCC(F)(F)F)n1` [Example I-115, N-(4-(4-(6-Methyl-2-(3,3,3-trifluoropropoxy)pyrimidin-4-yl)-1H-pyrazol-1-yl)-3-(6-azaspiro[2.5]octan-6-yl)phenyl)-2-hydroxyethane-1-sulfonamide], the IC50 in assay [1] was 0.005 µM; in the assay with NIH:OVCAR-3 cells (Homo sapiens, OVCAR-3, 72 h), 0.167 µM.
For `Cc1cc(-c2nnc(-c3ccc(NS(=O)(=O)CCO)cc3N3CCC4(CC3)CC4)o2)nc(N2CCC3(CC3)C2)n1` [Example I-17, 2-Hydroxy-N-(4-(5-(6-methyl-2-(5-azaspiro[2.4]heptan-5-yl)pyrimidin-4-yl)-1,3,4-oxadiazol-2-yl)-3-(6-azaspiro[2.5]octan-6-yl)phenyl)ethane-1-sulfonamide], in that order: 0.01 µM and 0.56 µM.
In the same order, the values of `Cc1cc(-c2nnc(-c3ccc(NS(=O)(=O)CCO)cc3N3CCC4(CC3)CC4)o2)nc(N2CCC(F)CC2)n1` [Example I-8, N-(4-(5-(2-(4-fluoropiperidin-1-yl)-6-methylpyrimidin-4-yl)-1,3,4-oxadiazol-2-yl)-3-(6-azaspiro [2.5]octan-6-yl)phenyl)-2-hydroxyethanesulfonamide] are 0.002 µM and 0.035 µM.
In the same order, the values of `Cc1cc(-c2cnn(-c3ccc(NS(=O)(=O)CCO)cc3N3CCC(C)(F)CC3)c2)nc(N2CCC(F)(F)CC2)n1` [Example I-117, N-(4-(4-(2-(4,4-Difluoropiperidin-1-yl)-6-methylpyrimidin-4-yl)-1H-pyrazol-1-yl)-3-(4-fluoro-4-methylpiperidin-1-yl)phenyl)-2-hydroxyethane-1-sulfonamide] are 0.009 µM and 0.365 µM.
In the case of `Cc1cc(-c2nnc(-c3ccc(NS(=O)(=O)CCO)cc3N3CCC4(CC3)CC4)o2)nc(N2CC(F)(F)C2)n1` [Example I-3, N-(4-(5-(2-(3,3-Difluoroazetidin-1-yl)-6-methylpyrimidin-4-yl)-1,3,4-oxadiazol-2-yl)-3-(6-azaspiro[2.5]octan-6-yl)phenyl)-2-hydroxyethane-1-sulfonamide], the IC50 stood at 0.011 µM in assay [1] and 0.051 µM with NIH:OVCAR-3 cells (Homo sapiens, OVCAR-3, 72 h).
Regarding `Cc1cc(-c2nnc(-c3ccc(NS(=O)(=O)CCO)cc3N3CCC4(CC3)CC4)s2)nc(N2CCC(F)(F)CC2)n1` [Example I-77, N-(4-(5-(2-(4,4-Difluoropiperidin-1-yl)-6-methylpyrimidin-4-yl)-1,3,4-thiadiazol-2-yl)-3-(6-azaspiro[2.5]octan-6-yl)phenyl)-2-hydroxyethane-1-sulfonamide], the IC50 in assay [1] was 0.002 µM; with NIH:OVCAR-3 cells (Homo sapiens, OVCAR-3, 72 h) it was 0.12 µM.
In the same order, the values of `Cc1cc(-c2cn(-c3ccc(NS(=O)(=O)CCO)cc3N3CCC4(CC3)CC4)nn2)nc(N2CCC(F)(F)CC2)n1` [Example I-79, N-(4-(4-(2-(4,4-Difluoropiperidin-1-yl)-6-methylpyrimidin-4-yl)-1H-1,2,3-triazol-1-yl)-3-(6-azaspiro[2.5]octan-6-yl)phenyl)-2-hydroxyethane-1-sulfonamide] are 0.004 µM and 0.038 µM.
In the same order, the values of `O=S(=O)(CCO)Nc1ccc(-n2cc(-c3nc(N4CCC(F)(F)CC4)ncc3F)cn2)c(N2CCC3(CC2)CC3)c1` [Example I-129, N-(4-(4-(2-(4,4-Difluoropiperidin-1-yl)-5-fluoropyrimidin-4-yl)-1H-pyrazol-1-yl)-3-(6-azaspiro[2.5]octan-6-yl)phenyl)-2-hydroxyethane-1-sulfonamide] are 0.009 µM and 0.148 µM.
In the case of `Cc1cc(-c2nnc(-c3ccc(NS(=O)(=O)CCO)cc3N3CCC4(CC3)CC4)o2)nc(N2CCCC(F)(F)C2)n1` [Example I-7, N-(4-(5-(2-(3,3-Difluoropiperidin-1-yl)-6-methylpyrimidin-4-yl)-1,3,4-oxadiazol-2-yl)-3-(6-azaspiro[2.5]octan-6-yl)phenyl)-2-hydroxyethane-1-sulfonamide], the IC50 in assay [1] turned out to be 0.001 µM; in the assay with NIH:OVCAR-3 cells (Homo sapiens, OVCAR-3, 72 h), 0.073 µM.
As to `Cc1cc(-c2nnc(-c3ccc(NS(=O)(=O)CCO)cc3N3CCC4(CC3)CC4)o2)cc(N2CCC(F)(F)CC2)n1` [Example I-52, N-(4-(5-(2-(4,4-Difluoropiperidin-1-yl)-6-methylpyridin-4-yl)-1,3,4-oxadiazol-2-yl)-3-(6-azaspiro[2.5]octan-6-yl)phenyl)-2-hydroxyethane-1-sulfonamide], the IC50 in assay [1] amounted to 0.001 µM; in the assay on NIH:OVCAR-3 cells it was 0.045 µM.
On to `Cc1cc(-c2cnn(-c3ccc(NS(=O)(=O)CCO)cc3N3CCC4(CC3)CC4)c2)nc(N2CCCC(F)(F)C2)n1` [Example I-118, N-(4-(4-(2-(3,3-Difluoropiperidin-1-yl)-6-methylpyrimidin-4-yl)-1H-pyrazol-1-yl)-3-(6-azaspiro[2.5]octan-6-yl)phenyl)-2-hydroxyethane-1-sulfonamide], for which the IC50 in assay [1] was 0.002 µM; in the assay with NIH:OVCAR-3 cells (Homo sapiens, OVCAR-3, 72 h), 0.184 µM.
For `Cc1cc(-c2nnc(-c3ccc(NS(=O)(=O)CCO)cc3N3CCC4(CC3)CC4)o2)nc(N2CCC(C(F)(F)F)C2)c1` (centres unmarked) [Example I-104, N-(4-(5-(4-Methyl-6-(3-(trifluoromethyl)pyrrolidin-1-yl)pyridin-2-yl)-1,3,4-oxadiazol-2-yl)-3-(6-azaspiro[2.5]octan-6-yl)phenyl)-2-hydroxyethane-1-sulfonamide], the IC50 in assay [1] worked out at 0.013 µM.
Same read-out and setting: as for `Cc1cc(-c2cnn(-c3ccc(NS(=O)(=O)CCO)cc3N3CCC(C)CC3)c2)nc(N2CCC(F)(F)CC2)n1` [Example I-125, N-(4-(4-(2-(4,4-Difluoropiperidin-1-yl)-6-methylpyrimidin-4-yl)-1H-pyrazol-1-yl)-3-(4-methylpiperidin-1-yl)phenyl)-2-hydroxyethane-1-sulfonamide], the figure is 0.005 µM.
Take `Cc1cc(-n2cc(-c3ccc(NS(=O)(=O)CCO)cc3N3CCC4(CC3)CC4)cn2)nc(N2CCC(F)(F)CC2)n1` [Example I-81, N-(4-(1-(2-(4,4-Difluoropiperidin-1-yl)-6-methylpyrimidin-4-yl)-1H-pyrazol-4-yl)-3-(6-azaspiro[2.5]octan-6-yl)phenyl)-2-hydroxyethane-1-sulfonamide]: the IC50 in the assay with NIH:OVCAR-3 cells (Homo sapiens, OVCAR-3, 72 h) came to 0.393 µM.
Regarding `Cc1cc(-c2nnc(-c3ccc(NS(=O)(=O)CCO)cc3N3CCC4(CC3)CC4)o2)nc(N2CCC(C(F)(F)F)C2)n1` (centres unmarked) [Example I-98, N-(4-(5-(6-methyl-2-(3-(trifluoromethyl)pyrrolidin-1-yl)pyrimidin-4-yl)-1,3,4-oxadiazol-2-yl)-3-(6-azaspiro [2.5]octan-6-yl)phenyl)-2-hydroxyethane-sulfonamide], in assay [1], the IC50 amounted to 0.018 µM.
On to `Cc1cc(-c2nnc(-c3ccc(NS(=O)(=O)CCO)cc3N3CCC4(CC3)CC4)o2)c(F)c(N2CCC(F)(F)CC2)n1` [Example I-53], for which the IC50 in the assay on NIH:OVCAR-3 cells (Homo sapiens, OVCAR-3, 72 h) came to 0.214 µM.
The same measure, in the same setting: the result for `Cc1cc(-c2nnc(-c3ccc(NS(=O)(=O)CCO)cc3N3CCC4(CC3)CC4)s2)nc(OCCC(F)(F)F)n1` [Example I-99, N-(4-(5-(6-Methyl-2-(3,3,3-trifluoropropoxy)pyrimidin-4-yl)-1,3,4-thiadiazol-2-yl)-3-(6-azaspiro[2.5]octan-6-yl)phenyl)-2-hydroxyethane-1-sulfonamide] reads 0.205 µM.
Consider `Cc1cc(-c2nnc(-c3ccc(NS(=O)(=O)CCO)cc3N3CCC4(CC3)CC4)o2)nc(N2CCCC(C(F)(F)F)C2)c1` (centres unmarked) [Example I-103, N-(4-(5-(4-Methyl-6-(3-(trifluoromethyl)piperidin-1-yl)pyridin-2-yl)-1,3,4-oxadiazol-2-yl)-3-(6-azaspiro[2.5]octan-6-yl)phenyl)-2-hydroxyethane-1-sulfonamide], for which the IC50 in assay [1] stood at 0.012 µM.
